Each block holds one compound with its values, some of them ahead of it.
Assays:
[1] = target: T1, Mitogen-activated protein kinase kinase kinase kinase 1 (Homo sapiens, UniProt Q92918); assay: Inhibition of HPK1 (1 to 346 residues) (unknown origin) assessed as inhibition constant by Lanthascreen binding assay
Target sequence in this assay (Q92918 whole entry, the tested form may be a part): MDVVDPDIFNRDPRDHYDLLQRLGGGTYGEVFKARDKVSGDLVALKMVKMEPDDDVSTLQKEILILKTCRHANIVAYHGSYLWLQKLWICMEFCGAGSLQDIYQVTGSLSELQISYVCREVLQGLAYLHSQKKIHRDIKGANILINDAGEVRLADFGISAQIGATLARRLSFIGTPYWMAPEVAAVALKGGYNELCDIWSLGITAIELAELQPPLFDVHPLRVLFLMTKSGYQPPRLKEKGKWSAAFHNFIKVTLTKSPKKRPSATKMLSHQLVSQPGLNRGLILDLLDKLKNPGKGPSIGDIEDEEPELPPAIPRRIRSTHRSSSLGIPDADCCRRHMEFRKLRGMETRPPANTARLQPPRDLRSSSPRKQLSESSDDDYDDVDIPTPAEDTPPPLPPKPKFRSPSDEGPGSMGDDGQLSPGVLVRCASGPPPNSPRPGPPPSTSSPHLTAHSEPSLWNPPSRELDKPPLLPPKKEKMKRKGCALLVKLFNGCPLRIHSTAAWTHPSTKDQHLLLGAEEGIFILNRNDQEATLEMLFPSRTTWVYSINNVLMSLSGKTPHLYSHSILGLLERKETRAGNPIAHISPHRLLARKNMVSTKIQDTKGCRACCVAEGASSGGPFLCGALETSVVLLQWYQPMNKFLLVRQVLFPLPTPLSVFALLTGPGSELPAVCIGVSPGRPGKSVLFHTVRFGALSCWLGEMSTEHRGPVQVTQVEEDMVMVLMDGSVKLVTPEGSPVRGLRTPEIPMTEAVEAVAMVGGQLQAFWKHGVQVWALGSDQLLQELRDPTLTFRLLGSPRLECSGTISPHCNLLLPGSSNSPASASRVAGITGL

[2] = target: T1, Mitogen-activated protein kinase kinase kinase kinase 1; assay: Inhibition of HPK1 (unknown origin) in presence of ATP
Target sequence in this assay (Q92918 whole entry, the tested form may be a part): as above

[3] = target: T2, Receptor-type tyrosine-protein kinase FLT3 (Homo sapiens, UniProt P36888); assay: Inhibition of FLT3 (unknown origin) by FRET assay
T2 sequence (P36888 whole entry): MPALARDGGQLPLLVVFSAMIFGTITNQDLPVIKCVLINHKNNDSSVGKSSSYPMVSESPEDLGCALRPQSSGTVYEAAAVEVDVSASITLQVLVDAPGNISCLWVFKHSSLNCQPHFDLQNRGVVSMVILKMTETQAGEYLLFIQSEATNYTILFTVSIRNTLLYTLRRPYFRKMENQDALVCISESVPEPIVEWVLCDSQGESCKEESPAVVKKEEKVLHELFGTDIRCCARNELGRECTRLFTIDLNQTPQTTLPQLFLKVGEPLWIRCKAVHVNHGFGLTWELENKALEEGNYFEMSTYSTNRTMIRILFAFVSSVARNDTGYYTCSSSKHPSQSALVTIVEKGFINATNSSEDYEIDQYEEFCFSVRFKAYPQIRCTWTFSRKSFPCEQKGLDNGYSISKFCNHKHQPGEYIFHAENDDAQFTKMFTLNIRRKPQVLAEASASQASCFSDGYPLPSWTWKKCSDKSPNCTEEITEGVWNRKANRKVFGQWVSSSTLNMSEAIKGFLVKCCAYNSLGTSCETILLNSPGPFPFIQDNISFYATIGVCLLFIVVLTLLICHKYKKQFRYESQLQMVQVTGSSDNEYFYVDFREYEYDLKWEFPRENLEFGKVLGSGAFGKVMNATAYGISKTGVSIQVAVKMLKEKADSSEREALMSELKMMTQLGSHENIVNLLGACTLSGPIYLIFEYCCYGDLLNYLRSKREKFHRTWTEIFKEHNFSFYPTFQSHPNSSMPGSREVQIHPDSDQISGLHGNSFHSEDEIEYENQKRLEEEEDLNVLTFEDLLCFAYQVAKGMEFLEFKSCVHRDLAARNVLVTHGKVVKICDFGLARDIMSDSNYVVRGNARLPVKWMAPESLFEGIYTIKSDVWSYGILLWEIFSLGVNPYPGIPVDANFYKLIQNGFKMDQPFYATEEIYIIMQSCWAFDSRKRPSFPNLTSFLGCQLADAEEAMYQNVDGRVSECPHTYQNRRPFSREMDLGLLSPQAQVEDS

[4] = target: T1, Mitogen-activated protein kinase kinase kinase kinase 1; assay: Inhibition of HPK1 (unknown origin) by ELISA
Target sequence in this assay (Q92918 whole entry, the tested form may be a part): as the sequence (Q92918 whole entry, the tested form may be a part) above

[5] = target: Tyrosine-protein kinase Lck (Homo sapiens, UniProt P06239); assay: Inhibition of LCK (unknown origin)
[6] = target: T1, Mitogen-activated protein kinase kinase kinase kinase 1; assay: Inhibition of HPK1 (unknown origin) by FRET assay
Target sequence in this assay (Q92918 whole entry, the tested form may be a part): as the sequence (Q92918 whole entry, the tested form may be a part) above

[7] = target: T1, Mitogen-activated protein kinase kinase kinase kinase 1; assay: Inhibition of HPK1 (unknown origin) by ADP-Glo kinase assay
Target sequence in this assay (Q92918 whole entry, the tested form may be a part): as the sequence (Q92918 whole entry, the tested form may be a part) above

[8] = target: T1, Mitogen-activated protein kinase kinase kinase kinase 1; assay: Inhibition of HPK1 (unknown origin) assessed as inhibition of SLP76 phosphorylation at 0.3 to 1 uM relative to control; details: dose 0.3-1 µM
Target sequence in this assay (Q92918 whole entry, looked up, the tested form may be a part): as the sequence (Q92918 whole entry, the tested form may be a part) above

[9] = target: T1, Mitogen-activated protein kinase kinase kinase kinase 1; assay: Inhibition of HPK1 (unknown origin) in presence of ATP by TR-FRET assay
Target sequence in this assay (Q92918 whole entry, the tested form may be a part): as the sequence (Q92918 whole entry, the tested form may be a part) above

[10] = target: T1, Mitogen-activated protein kinase kinase kinase kinase 1; assay: Inhibition of HPK1(unknown origin) assessed as inhibition of SLP76 phosphorylation by cell based assay
[11] = target: T1, Mitogen-activated protein kinase kinase kinase kinase 1; assay: Binding affinity to HPK1 (unknown origin) assessed as dissociation constant by SPR analysis
[12] = target: T1, Mitogen-activated protein kinase kinase kinase kinase 1; assay: Inhibition of HPK1 (unknown origin) by TR-FRET assay
[13] = target: T1, Mitogen-activated protein kinase kinase kinase kinase 1; assay: Inhibition of HPK1 (unknown origin) assessed as inhibition constant by Lanthascreen binding assay
[14] = target: T1, Mitogen-activated protein kinase kinase kinase kinase 1; assay: Inhibition of HPK1 (unknown origin) assessed as inhibition of SLP76 phosphorylation by HTRF assay
[15] = Cytotoxicity against HEK293 cells assessed as cell growth inhibition; assay type: toxicity, cell-based; details: human
[16] = target: T3, Protein cereblon/Mitogen-activated protein kinase kinase kinase kinase 1 (Homo sapiens) (UniProt Q92918+Q96SW2); assay: PROTAC activity at CRBN/HPK1 (unknown origin) assessed as degradation of HPK1 at 100 nM incubated for 12 hrs by cell based assay relative to control
[17] = target: T3, Protein cereblon/Mitogen-activated protein kinase kinase kinase kinase 1 (Homo sapiens); assay: PROTAC activity at CRBN/HPK1 (unknown origin) assessed as degradation of HPK1 at 10 nM incubated for 12 hrs by cell based assay relative to control
Interleukin-2 = Interleukin-2 (Homo sapiens, UniProt P60568); assay: Inhibition of IL-2 (unknown origin)
[18] = target: T1, Mitogen-activated protein kinase kinase kinase kinase 1; assay: Inhibition of HPK1 in human PBMC assessed as inhibition of SLP76 phosphorylation incubated for 1 hr by ELISA; assay type: cell-based
[19] = target: T1, Mitogen-activated protein kinase kinase kinase kinase 1; assay: Inhibition of N-terminal DYKDDDDK-tagged human HPK1 (1 to 346 residues) expressed in baculovirus expression system using SLP76 as substrate incubated for 1 hr in presence of ATP by TR-FRET assay
[20] = target: T1, Mitogen-activated protein kinase kinase kinase kinase 1; assay: Inhibition of HPK1 (unknown origin) in presence of ATP by ADP-Glo kinase assay
[21] = target: T3, Protein cereblon/Mitogen-activated protein kinase kinase kinase kinase 1 (Homo sapiens); assay: PROTAC activity at CRBN/HPK1 (unknown origin) assessed as maximum degradation of HPK1 by cell based assay relative to control
[22] = target: T3, Protein cereblon/Mitogen-activated protein kinase kinase kinase kinase 1 (Homo sapiens); assay: PROTAC activity at CRBN/HPK1 (unknown origin) assessed as maximum inhibition of SLP76 phosphorylation by cell based assay relative to control
[23] = target: T1, Mitogen-activated protein kinase kinase kinase kinase 1; assay: Inhibition of full-length HPK1 (unknown origin) assessed as inhibition constant in presence of ATP by HTRF assay

T3 sequence (Q92918 whole entry, looked up): as the sequence (Q92918 whole entry, the tested form may be a part) above
T3 sequence (Q96SW2 whole entry, looked up): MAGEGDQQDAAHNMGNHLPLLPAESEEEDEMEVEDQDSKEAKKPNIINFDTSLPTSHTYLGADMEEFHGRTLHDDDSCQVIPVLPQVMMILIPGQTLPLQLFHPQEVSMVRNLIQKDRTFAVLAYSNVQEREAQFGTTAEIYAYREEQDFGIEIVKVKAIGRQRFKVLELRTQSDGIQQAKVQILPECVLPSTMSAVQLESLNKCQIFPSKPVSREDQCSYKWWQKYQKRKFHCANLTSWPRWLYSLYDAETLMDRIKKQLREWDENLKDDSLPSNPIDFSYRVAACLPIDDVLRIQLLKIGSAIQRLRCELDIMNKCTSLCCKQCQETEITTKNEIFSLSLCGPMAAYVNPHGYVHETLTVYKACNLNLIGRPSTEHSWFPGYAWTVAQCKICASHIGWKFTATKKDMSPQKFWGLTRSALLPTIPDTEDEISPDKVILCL
Sequence of Tyrosine-protein kinase Lck (P06239 whole entry): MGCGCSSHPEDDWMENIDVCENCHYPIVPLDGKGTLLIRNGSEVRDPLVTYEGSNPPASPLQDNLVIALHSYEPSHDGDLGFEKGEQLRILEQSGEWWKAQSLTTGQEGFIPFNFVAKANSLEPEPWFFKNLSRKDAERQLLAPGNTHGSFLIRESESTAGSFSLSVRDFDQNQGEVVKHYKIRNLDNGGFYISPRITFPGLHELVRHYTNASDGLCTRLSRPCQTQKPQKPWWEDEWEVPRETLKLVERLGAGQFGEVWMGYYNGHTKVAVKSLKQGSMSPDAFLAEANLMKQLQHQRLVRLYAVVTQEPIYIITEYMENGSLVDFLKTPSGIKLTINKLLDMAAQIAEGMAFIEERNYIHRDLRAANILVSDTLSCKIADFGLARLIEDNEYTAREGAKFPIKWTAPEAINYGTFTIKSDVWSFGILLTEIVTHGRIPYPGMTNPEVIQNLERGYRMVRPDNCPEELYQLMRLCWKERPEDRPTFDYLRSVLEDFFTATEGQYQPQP
Sequence of Interleukin-2 (P60568 whole entry): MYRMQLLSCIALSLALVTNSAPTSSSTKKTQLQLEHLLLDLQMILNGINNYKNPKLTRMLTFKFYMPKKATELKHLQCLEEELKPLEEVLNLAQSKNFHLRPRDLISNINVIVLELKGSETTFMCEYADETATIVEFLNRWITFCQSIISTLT

SMILES: CN1CCN(c2ccc3[nH]c(-c4c(N)c5ccsc5[nH]c4=O)nc3c2)CC1
IC50 [3]: ≤ 500 nM
IC50 [4]: ≤ 50 nM
IC50 [5]: 50 nM

SMILES: C[C@H]1COC(=O)N1c1cc(N)c2nnc(NC(=O)[C@@H]3C[C@H]3c3cnn(C)c3)cc2c1
IC50 [7]: 1.9 nM

SMILES: CN1CCN(c2ccc3nc(-c4c(N)c5ccsc5[nH]c4=O)[nH]c3c2)CC1
inhibition [8]: > 75%

SMILES: Cn1cc(Nc2ncc(C3=CCC[C@@H](NC(=O)c4ccccc4)C3)nc2C(N)=O)cn1
IC50 [9]: 4 nM
EC50 [10]: 149 nM
Kd [11]: 2.2 nM

SMILES: CN(C)C(=O)c1ccc(-c2c[nH]c3ncc(-c4ccc5c(c4)CNCC5)cc23)cc1
IC50 [12]: 107 nM

SMILES: CC(C)n1cnnc1-c1cccc(N2Cc3c(cc(N4CCC[C@H]4C)nc3CN)C2=O)n1
IC50 [14]: 22 nM

SMILES: Cc1c(CC#N)ccnc1-c1cc(N)cc(-c2cnc3c(c2Cl)[C@]2(CC[C@](C)(C#N)C2)CN3)c1
Ki [13]: 0.9 nM

SMILES: COc1cccc(F)c1-n1cc2c(-c3ccc(N4CCN(C)CC4)cc3)n[nH]c2cc1=O
Ki [1]: ≤ 100 nM

SMILES: COc1cccc(F)c1-c1cc2c(C(=O)Nc3ccc(N4CCN(C)CC4)cc3)n[nH]c2cn1
Ki [1]: ≤ 100 nM

SMILES: COc1cc2c(cc1Nc1ncc(Cl)c(Nc3ccccc3P(C)(C)=O)n1)CN(C)CCC2
IC50 [2]: 100 nM

SMILES: COCCN(C)C(=O)c1ccc(-c2c[nH]c3ncc(-c4ccc(N5CCN(C)CC5)cc4)nc23)cc1
IC50 [12]: 8.2 nM

SMILES: Cc1cc(-c2cnc3[nH]cc(-c4ccc(C(O)C5CCN(C)C5)cc4)c3c2)ccc1N1CCN(C)CC1 (configuration not stated)
IC50 [12]: 4.5 nM

SMILES: COc1cccc(F)c1-c1ccc2[nH]nc(-c3ccc(N4CCN(C)CC4)cc3)c2n1
Ki [1]: ≤ 100 nM

SMILES: COc1ccc(-c2c[nH]c3ncc(C#N)c(Oc4c(F)cc(NC5=NCC(C)(CO)CO5)cc4F)c23)c(F)c1 (configuration not stated)
IC50 [20]: ≤ 50 nM

SMILES: COc1cccc(F)c1-c1ncc2[nH]nc(-c3ccc(N4CCN(C)CC4)cc3)c2n1
Ki [1]: ≤ 100 nM

SMILES: Cc1cc2cc(N)c(C(=O)N(C)C)nc2[nH]1
Ki [13]: 1300 nM

SMILES: COc1ccc(-c2c[nH]c3ncnc(Oc4c(F)cc(NC5=NCC(C)(CO)CO5)cc4F)c23)c(F)c1 (configuration not stated)
IC50 [20]: ≤ 50 nM

SMILES: CCc1c(C)[nH]c2nc(C(=O)N(C)C)c(N)cc12
Ki [13]: 15 nM

SMILES: CC(C)(O)C#Cc1cccc(COc2cc(-c3cnc(C4CCN(C(=O)CCCCCCCCCOc5cccc6c5C(=O)N(C5CCC(=O)NC5=O)C6=O)CC4)s3)cnc2N)c1 (configuration not stated)
Activity [16]: 75%
Activity [17]: 15%
Emax [21]: 62%
Emax [22]: 81%

SMILES: CCc1c(Cl)[nH]c2nc(C(=O)N(C)C)c(N)cc12
Ki [13]: 0.9 nM

The next lines start with results.

Ki [1]: ≤ 100 nM
SMILES: Cc1cc(CNCCO)cc(F)c1-c1cc2c(-c3cnn(C)c3)n[nH]c2cn1

IC50 [2]: 5 nM
SMILES: CNC(=O)c1ccccc1Nc1nc(Nc2cc3c(cc2OC)CCN(C)C3)ncc1Cl

IC50 [6]: < 50 nM
SMILES: C/C(Nc1ccc(N2CCOCC2)cn1)=C1/C(=O)Nc2cnc(-c3cnccc3C)cc21

Ki [13]: 0.39 nM
SMILES: Cc1c(CC#N)ccnc1-c1cccc(-c2cnc3c(c2Cl)C2(CC[C@@](C)(C(N)=O)C2)CN3)c1F (some centres not stated)

IC50 [2]: 10 nM
SMILES: COc1cc2c(cc1Nc1ncc(Cl)c(Nc3ccccc3P(C)(C)=O)n1)CN(C)C2

inhibition [8]: > 75%
IC50 [3]: 50 nM
IC50 [4]: 50 nM
IC50 [5]: 50 nM
SMILES: CN1CCN(c2ccc3nc(-c4c(N)c5sccc5[nH]c4=O)[nH]c3c2)CC1

IC50 [12]: 11 nM
SMILES: Cc1cc(-c2cnc3[nH]cc(-c4ccc(C(=O)N(C)C[C@H](C)O)cc4)c3n2)cc2c1CCN(CCN1CCOCC1)C2
IC50 [15]: 1420 nM

Ki [1]: 500 nM
SMILES: COc1cccc(F)c1-c1cc2c(NCc3ccc(N4CCN(C)CC4)cc3)n[nH]c2cn1

IC50 [12]: 7.3 nM
SMILES: CN(C)C(=O)c1ccc(-c2c[nH]c3ncc(-c4ccc5c(c4)CN([C@H]4CC[C@](C)(O)CC4)CC5)cc23)cc1

Activity [16]: 68%
Activity [17]: 72%
SMILES: CC(C)(O)C#Cc1cccc(COc2cc(-c3cnc(C4CCN(C(=O)CCOCCOCCOCCOCCOc5cccc6c5C(=O)N(C5CCC(=O)NC5=O)C6=O)CC4)s3)cnc2N)c1 (configuration not stated)

IC50 [2]: 0.05 nM
EC50 (Interleukin-2): 9.4 nM
SMILES: C[C@H]1CC(=O)c2ccc(Nc3cc4c([C@](C)(N)C5CC5)cnc(OC5CC5)c4cn3)cc2C12CC2

IC50 [18]: 100 nM
IC50 [2]: < 5 nM
IC50 [19]: 0.334 nM
SMILES: COc1cc2c(cc1Nc1ncc(Cl)c(Nc3ccccc3P(C)(C)=O)n1)CN(C)CC2

IC50 [2]: ≤ 5 nM
SMILES: COc1cc2c(cc1Nc1ncc(Br)c(Nc3ccccc3P(C)(C)=O)n1)CN(C)CC2

IC50 [12]: 4.8 nM
SMILES: Cc1cc(-c2cnc3[nH]cc(-c4ccc(C(=O)N5CC(N(C)C)C5)cc4)c3c2)cc(C)c1N1CCN(C2CCN(C)CC2)CC1

IC50 [7]: < 0.01 nM
SMILES: Cc1ccncc1-c1cc2cc(NC(=O)C=C3CC(C#N)C3)ncc2c(N)n1 (configuration not stated)

IC50 [14]: 730 nM
SMILES: CNCc1nc(C2(C)CC2)cc2c1CN(c1cccc(N3C(=O)OC[C@@H]3C)n1)C2=O

IC50 [6]: < 50 nM
SMILES: CCN(CC)CCNC(=O)c1c[nH]c(/C=C2\C(=O)Nc3ccc(-c4c(F)cccc4OC)cc32)c1

IC50 [9]: 2.8 nM
SMILES: Cc1cc(-c2cnc(N)c(OCc3ccnc(C#Cc4cccc(F)c4)c3)n2)cc2c1CCN(C)C2

IC50 [2]: 5 nM
SMILES: COc1cc2c(cc1Nc1ncc(C(F)(F)F)c(Nc3ccccc3P(C)(C)=O)n1)CN(C)CC2

IC50 [7]: < 100 nM
SMILES: COc1cc2c(cc1Nc1ncc(Cl)c(N3CC(CO)c4ccccc43)n1)CN(C)CC2 (configuration not stated)

IC50 [2]: ≤ 5 nM
SMILES: COc1cc2c(cc1Nc1ncc(Cl)c(Nc3ccccc3S(=O)(=O)C(C)C)n1)CN(C)CC2

Ki [23]: 0.05 nM
SMILES: Cc1c(N)cncc1-c1cc2cc(Nc3cc4n(n3)CC(=O)N(C(C)C)CC4)ncc2cc1F

Source: ChEMBL document CHEMBL5137050, “Hematopoietic Progenitor Kinase 1 in Tumor Immunology: A Medicinal Chemistry Perspective” (J Med Chem, 2022)
